Measurements as given in ChEMBL document CHEMBL1158276, “Synthesis of 5-(3-Hydroxypropyl)-7-methoxy-2-(3-methoxy-4-hydroxyphenyl)-3- benzo[ b ]furancarbaldehyde, a Novel Adenosine A 1 Receptor Ligand from the Root of Salvia miltiorrhiza” (J Nat Prod, 1996).

Target: T1, Adenosine receptor A1 (Bos taurus, UniProt P28190)
T1 sequence (P28190 whole entry): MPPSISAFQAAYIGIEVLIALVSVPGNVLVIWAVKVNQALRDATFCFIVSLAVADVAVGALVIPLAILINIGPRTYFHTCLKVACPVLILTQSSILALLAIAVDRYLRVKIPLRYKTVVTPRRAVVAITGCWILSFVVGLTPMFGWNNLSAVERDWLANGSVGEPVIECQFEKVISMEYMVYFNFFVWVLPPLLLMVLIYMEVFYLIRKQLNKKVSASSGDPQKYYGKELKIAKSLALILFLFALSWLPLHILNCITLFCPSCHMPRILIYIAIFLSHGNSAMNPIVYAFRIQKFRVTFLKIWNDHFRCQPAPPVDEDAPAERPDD
Test: Displacement of [3H]phenylisopropyladenosine from adenosine A1 receptor in bovine cerebral cortex membrane
Assay type: cell membranes

IC50: 17 nM
Compound: COc1cc(-c2oc3c(OC)cc(CCCO)cc3c2C=O)ccc1O
